Measured values reported in patent publication US10525041B2, “Fluoroalkyl-substituted aryltriazole derivatives and uses thereof” (BAYER PHARMA AKTIENGESELLSCHAFT, priority 2016, dated 2020).

Key:
human V1a receptor = target: T1, human V1a receptor (Homo sapiens, UniProt P37288); assay: Cellular in vitro assay for vasopressin receptor activity, V1a cell line (aequorin luminescence); type: cell-based; settings: for IC50: CHO cell line transfected with human V1a receptor, agonist [Arg8]-vasopressin at EC50 concentration, read-out: IC50hV1a; for ratio IC50 hV2/hV1a: ratio of the IC50 on human V2 to the IC50 on human V1a
T1 construct: expressed in transfected cells; host or cells: CHO K1 (ATCC), also stably transfected with a modified aequorin
T1 sequence (P37288 whole entry): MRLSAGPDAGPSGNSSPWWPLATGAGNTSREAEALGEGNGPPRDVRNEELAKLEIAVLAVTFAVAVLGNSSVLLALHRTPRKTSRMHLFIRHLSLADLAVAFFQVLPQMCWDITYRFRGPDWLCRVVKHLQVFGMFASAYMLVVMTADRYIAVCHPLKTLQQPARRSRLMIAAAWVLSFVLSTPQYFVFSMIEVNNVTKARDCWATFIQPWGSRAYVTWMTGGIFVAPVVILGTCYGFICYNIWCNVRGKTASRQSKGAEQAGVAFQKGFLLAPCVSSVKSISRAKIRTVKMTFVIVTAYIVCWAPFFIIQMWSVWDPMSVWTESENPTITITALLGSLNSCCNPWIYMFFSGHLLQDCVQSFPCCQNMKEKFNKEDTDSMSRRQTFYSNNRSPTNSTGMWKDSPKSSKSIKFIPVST
Experimental: (§1) B-1. Cellular In Vitro Assay for Determining Vasopressin Receptor Activity
(§2) The identification of agonists and antagonists of the V1a and V2 vasopressin receptors from humans, rats and dogs as well as the quantification of the activity of the compounds of the invention is carried out using recombinant cell lines. These cell lines originally derive from a hamster's ovary epithelial cell (Chinese Hamster Ovary, CHO K1, ATCC: American Type Culture Collection, Manassas, Va. 20108, USA). The test cell lines constitutively express the human, rat or dog V1a or V2 receptors. In case of the Gαq-coupled V1a receptors, cells are also stably transfected with a modified form of the calcium-sensitive photoproteins aequorin (human and rat V1a) or obelin (dog V1a), which, after reconstitution with the cofactor coelenterazine, emit light when there are increases in free calcium concentrations [Rizzuto R, Simpson A W, Brini M, Pozzan T, Nature 358, 325-327 (1992); Illarionov B A, Bondar V S, Illarionova V A, Vysotski E S, Gene 153 (2), 273-274 (1995)]. The resulting vasopressin receptor cells react to stimulation of the recombinantly expressed V1a receptors by intracellular release of calcium ions, which can be quantified by the resulting photoprotein luminescence. The Gs-coupled V2 receptors are stably transfected into cell lines expressing the gene for firefly luciferase under control of a CRE-responsible promoter. Activation of V2 receptors induces the activation of the CRE-responsive promoter via cAMP increase, thereby inducing the expression of firefly luciferase. The light emitted by photoproteins of V1a cell lines as well as the light emitted by firefly luciferase of V2 cell lines corresponds to the activation or inhibition of the respective vasopressin receptor. The bioluminescence of the cell lines is detected using a suitable luminometer [Milligan G, Marshall F, Rees S, Trends in Pharmacological Sciences 17, 235-237 (1996)].
Vasopressin V1a Receptor Cell Lines:
On the day before the assay, the cells are plated out in culture medium (DMEM/F12, 2% FCS, 2 mM glutamine, 10 mM HEPES, 5 μg/ml coelenterazine) in 384-well microtiter plates and kept in a cell incubator (96% humidity, 5% v/v CO2, 37° C.). On the day of the assay, test compounds in various concentrations are placed for 10 minutes in the wells of the microtiter plate before the agonist [Arg^8]-vasopressin at EC50 concentration is added. The resulting light signal is measured immediately in a luminometer.
(§3) Table 1A below lists individual IC50 values for the compounds of the invention (including racemic mixtures as well as separated enantiomers) that were obtained from cell lines transfected with the human V1a or V2 receptor: […]

human V2 receptor = target: T2, human V2 receptor (Homo sapiens, UniProt P30518); assay: Cellular in vitro assay for vasopressin receptor activity, V2 cell line (CRE-luciferase); type: cell-based; settings: CHO cell line transfected with human V2 receptor; agonist [Arg8]-vasopressin at EC50 concentration, 3 hours; read-out: IC50hV2
T2 construct: expressed in transfected cells; host or cells: CHO K1 (ATCC) line expressing firefly luciferase under a CRE-responsive promoter
T2 sequence (P30518 whole entry): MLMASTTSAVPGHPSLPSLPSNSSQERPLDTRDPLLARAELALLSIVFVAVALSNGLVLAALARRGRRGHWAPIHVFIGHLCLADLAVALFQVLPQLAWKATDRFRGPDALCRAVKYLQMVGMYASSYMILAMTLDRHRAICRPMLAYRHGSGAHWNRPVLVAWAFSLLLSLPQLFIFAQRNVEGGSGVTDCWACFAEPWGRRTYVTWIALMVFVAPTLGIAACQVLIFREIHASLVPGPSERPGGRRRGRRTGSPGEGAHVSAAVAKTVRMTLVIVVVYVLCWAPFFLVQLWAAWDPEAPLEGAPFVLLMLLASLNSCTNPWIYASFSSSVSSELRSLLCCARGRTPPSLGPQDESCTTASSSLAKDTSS
Experimental: as §1, §2
Vasopressin V2 Receptor Cell Lines:
On the day before the assay, the cells are plated out in culture medium (DMEM/F12, 2% FCS, 2 mM glutamine, 10 mM HEPES) in 384-well microtiter plates and kept in a cell incubator (96% humidity, 5% v/v CO2, 37° C.). On the day of the assay, test compounds in various concentrations and the agonist [Arg^8]-vasopressin at EC50 concentration are added together to the wells, and plates are incubated for 3 hours in a cell incubator. Upon addition of the cell lysis reagent Triton™ and the substrate luciferin, luminescence of firefly luciferase is measured in a luminometer.
as §3

CC(F)c1nc(Cn2nc(-c3ccc(Cl)cc3)n(C[C@H](O)C(F)(F)F)c2=O)nn1-c1ccccc1Cl (mixture of isomers) [Example 1, 5-(4-Chlorophenyl)-2-({1-(2-chlorophenyl)-5-[1-fluoroethyl]-1H-1,2,4-triazol-3-yl}methyl)-4-[(2S)-3,3,3-trifluoro-2-hydroxypropyl]-2,4-dihydro-3H-1,2,4-triazol-3-one]
IC50 (human V1a receptor): 0.35 nM | ratio IC50 hV2/hV1a (human V1a receptor): 2.0 | IC50 (human V2 receptor): 0.7 nM

CC(F)c1nc(Cn2nc(-c3ccc(Cl)cc3)n(C[C@H](O)C(F)(F)F)c2=O)nn1-c1cnccc1Cl (mixture of isomers) [Example 4, 5-(4-Chlorophenyl)-2-({1-(4-chloropyridin-3-yl)-5-[1-fluoroethyl]-1H-1,2,4-triazol-3-yl}methyl)-4-[(2S)-3,3,3-trifluoro-2-hydroxypropyl]-2,4-dihydro-3H-1,2,4-triazol-3-one]
IC50 (human V1a receptor): 2.05 nM | ratio IC50 hV2/hV1a (human V1a receptor): 9.0 | IC50 (human V2 receptor): 18.5 nM

CC(F)c1nc(Cn2nc(-c3ccc(Cl)cc3)n(C[C@H](O)C(F)(F)F)c2=O)nn1-c1cccc(Cl)c1 (mixture of isomers) [Example 16, 5-(4-Chlorophenyl)-2-({1-(3-chlorophenyl)-5-[1-fluoroethyl]-1H-1,2,4-triazol-3-yl}methyl)-4-[(2S)-3,3,3-trifluoro-2-hydroxypropyl]-2,4-dihydro-3H-1,2,4-triazol-3-one]
IC50 (human V1a receptor): 16 nM | ratio IC50 hV2/hV1a (human V1a receptor): 0.0 | IC50 (human V2 receptor): 0.58 nM

CC(F)c1nc(Cn2nc(-c3ccc(Cl)cc3)n(C[C@H](O)C(F)(F)F)c2=O)nn1-c1ncccc1Cl (mixture of isomers) [Example 19, 5-(4-Chlorophenyl)-2-({1-(3-chloropyridin-2-yl)-5-[1-fluoroethyl]-1H-1,2,4-triazol-3-yl}methyl)-4-[(2S)-3,3,3-trifluoro-2-hydroxypropyl]-2,4-dihydro-3H-1,2,4-triazol-3-one]
IC50 (human V1a receptor): 2.85 nM | ratio IC50 hV2/hV1a (human V1a receptor): 5.2 | IC50 (human V2 receptor): 14.7 nM

CC(F)c1nc(Cn2nc(-c3ccc(Cl)cc3)n(C[C@H](O)C(F)(F)F)c2=O)nn1-c1ccccc1C(F)(F)F (mixture of isomers) [Example 22, 5-(4-Chlorophenyl)-2-({5-[1-fluoroethyl]-1-[2-(trifluoromethyl)phenyl]-1H-1,2,4-triazol-3-yl}methyl)-4-[(2S)-3,3,3-trifluoro-2-hydroxypropyl]-2,4-dihydro-3H-1,2,4-triazol-3-one]
IC50 (human V1a receptor): 3.9 nM | ratio IC50 hV2/hV1a (human V1a receptor): 3.5 | IC50 (human V2 receptor): 13.5 nM

CC(F)c1nc(Cn2nc(-c3ccc(Cl)cc3)n(C[C@H](O)C(F)(F)F)c2=O)nn1-c1ccccc1OC(F)(F)F (mixture of isomers) [Example 25, 5-(4-Chlorophenyl)-2-({5-[1-fluoroethyl]-1-[2-(trifluoromethoxy)phenyl]-1H-1,2,4-triazol-3-yl}methyl)-4-[(2S)-3,3,3-trifluoro-2-hydroxypropyl]-2,4-dihydro-3H-1,2,4-triazol-3-one]
IC50 (human V1a receptor): 2.7 nM | ratio IC50 hV2/hV1a (human V1a receptor): 6.3 | IC50 (human V2 receptor): 17 nM

CCc1ccccc1-n1nc(Cn2nc(-c3ccc(Cl)cc3)n(C[C@H](O)C(F)(F)F)c2=O)nc1C(C)F (mixture of isomers) [Example 28, 5-(4-Chlorophenyl)-2-({1-(2-ethylphenyl)-5-[1-fluoroethyl]-1H-1,2,4-triazol-3-yl}methyl)-4-[(2S)-3,3,3-trifluoro-2-hydroxypropyl]-2,4-dihydro-3H-1,2,4-triazol-3-one]
IC50 (human V1a receptor): 1.85 nM | ratio IC50 hV2/hV1a (human V1a receptor): 0.4 | IC50 (human V2 receptor): 0.76 nM

CC(F)c1nc(Cn2nc(-c3ccc(Cl)cc3)n(C[C@H](O)C(F)(F)F)c2=O)nn1-c1ccccc1OC(F)F (mixture of isomers) [Example 31, 5-(4-Chlorophenyl)-2-({1-[2-(difluoromethoxy)phenyl]-5-[1-fluoroethyl]-1H-1,2,4-triazol-3-yl}methyl)-4-[(2S)-3,3,3-trifluoro-2-hydroxypropyl]-2,4-dihydro-3H-1,2,4-triazol-3-one]
IC50 (human V1a receptor): 1.75 nM | ratio IC50 hV2/hV1a (human V1a receptor): 2.6 | IC50 (human V2 receptor): 4.58 nM

Cc1ccccc1-n1nc(Cn2nc(-c3ccc(Cl)cc3)n(C[C@H](O)C(F)(F)F)c2=O)nc1C(C)F (mixture of isomers) [Example 34, 5-(4-Chlorophenyl)-2-({5-[1-fluoroethyl]-1-(2-methylphenyl)-1H-1,2,4-triazol-3-yl}methyl)-4-[(2S)-3,3,3-trifluoro-2-hydroxypropyl]-2,4-dihydro-3H-1,2,4-triazol-3-one]
IC50 (human V1a receptor): 0.71 nM | ratio IC50 hV2/hV1a (human V1a receptor): 1.2 | IC50 (human V2 receptor): 0.84 nM

CC(F)c1nc(Cn2nc(-c3ccc(Cl)cc3)n(C[C@H](O)C(F)(F)F)c2=O)nn1-c1ccccc1[N+](=O)[O-] (mixture of isomers) [Example 37, 5-(4-Chlorophenyl)-2-({5-[1-fluoroethyl]-1-(2-nitrophenyl)-1H-1,2,4-triazol-3-yl}methyl)-4-[(2S)-3,3,3-trifluoro-2-hydroxypropyl]-2,4-dihydro-3H-1,2,4-triazol-3-one]
IC50 (human V1a receptor): 3.35 nM | ratio IC50 hV2/hV1a (human V1a receptor): 3.0 | IC50 (human V2 receptor): 10 nM

CC(F)c1nc(Cn2nc(-c3ccc(Cl)cc3)n(C[C@H](O)C(F)(F)F)c2=O)nn1-c1ccccc1C#N (mixture of isomers) [Example 38, 2-{3-({3-(4-Chlorophenyl)-5-oxo-4-[(2S)-3,3,3-trifluoro-2-hydroxypropyl]-4,5-dihydro-1H-1,2,4-triazol-1-yl}methyl)-5-[1-fluoroethyl]-1H-1,2,4-triazol-1-yl}benzonitrile]
IC50 (human V1a receptor): 82 nM | ratio IC50 hV2/hV1a (human V1a receptor): 2.0 | IC50 (human V2 receptor): 165 nM

CC(F)c1nc(Cn2nc(-c3ccc(Cl)cc3)n(C[C@H](O)C(F)(F)F)c2=O)nn1-c1ccccc1S(N)(=O)=O (mixture of isomers) [Example 41, 2-{3-({3-(4-Chlorophenyl)-5-oxo-4-[(2S)-3,3,3-trifluoro-2-hydroxypropyl]-4,5-dihydro-1H-1,2,4-triazol-1-yl}methyl)-5-[1-fluoroethyl]-1H-1,2,4-triazol-1-yl}benzenesulfonamide]
IC50 (human V1a receptor): 84.8 nM | ratio IC50 hV2/hV1a (human V1a receptor): 3.5 | IC50 (human V2 receptor): 292 nM

CCOc1ccccc1-n1nc(Cn2nc(-c3ccc(Cl)cc3)n(C[C@H](O)C(F)(F)F)c2=O)nc1C(C)F (mixture of isomers) [Example 42, 5-(4-Chlorophenyl)-2-({1-(2-ethoxyphenyl)-5-[1-fluoroethyl]-1H-1,2,4-triazol-3-yl}methyl)-4-[(2S)-3,3,3-trifluoro-2-hydroxypropyl]-2,4-dihydro-3H-1,2,4-triazol-3-one]
IC50 (human V1a receptor): 1.9 nM | ratio IC50 hV2/hV1a (human V1a receptor): 2.6 | IC50 (human V2 receptor): 4.95 nM

CC(F)c1nc(Cn2nc(-c3ccc(Cl)cc3)n(C[C@H](O)C(F)(F)F)c2=O)nn1-c1c(Cl)cccc1Cl (mixture of isomers) [Example 43, 5-(4-Chlorophenyl)-2-({1-(2,6-dichlorophenyl)-5-[1-fluoroethyl]-1H-1,2,4-triazol-3-yl}methyl)-4-[(2S)-3,3,3-trifluoro-2-hydroxypropyl]-2,4-dihydro-3H-1,2,4-triazol-3-one]
IC50 (human V1a receptor): 2.05 nM | ratio IC50 hV2/hV1a (human V1a receptor): 1.5 | IC50 (human V2 receptor): 3.1 nM

CC(F)c1nc(Cn2nc(-c3ccc(Cl)cc3)n(C[C@H](O)C(F)(F)F)c2=O)nn1-c1c(F)cccc1Cl (mixture of isomers) [Example 44, 2-({1-(2-chloro-6-fluorophenyl)-5-[1-fluoroethyl]-1H-1,2,4-triazol-3-yl}methyl)-5-(4-Chlorophenyl)-4-[(2S)-3,3,3-trifluoro-2-hydroxypropyl]-2,4-dihydro-3H-1,2,4-triazol-3-one]
IC50 (human V1a receptor): 1.04 nM | ratio IC50 hV2/hV1a (human V1a receptor): 2.8 | IC50 (human V2 receptor): 2.93 nM
